How the values were obtained:
NIH-3T3 fibroblasts = assay: BrdU incorporation in transfected NIH-3T3 fibroblasts; format: cell-based, mouse; conditions: for % Cells BrdU Positive: Table 2, expression vector 3 μg/10 ml; for % Cells BrdU Positive in 10% FCS: nonstarved cells; for % Cells BrdU Positive in 10% FCS / % Cells BrdU Positive in 0.1% FCS: additive None, labeled 22 hours; for % Cells BrdU Positive in 0.1% FCS: starved cells
Description: BrdU is added to NIH-3T3 cells after the experimental treatment and the cells were incubated for twenty-two hours in DMEM plus 10% fetal calf serum (FCS). The cells were then stained for DMP1 expression and/or BrdU incorporation. The nucleic acids encoding the wildtype DMP1 and the deletion and point mutants had been constructed so as to express the corresponding proteins with Flag-tags. To stain for DMP1 expression, mouse monoclonal anti-Flag antibodies (12 μg/ml) [Kodak] were incubated with the cells in TBS-Ca^+ without FCS for one hour at room temperature. After washing the cells, horse anti-mouse biotinylated antibodies at a 1:500 dilution were added to the cells in TBS plus 5% FCS and incubated for 30 minutes at room temperature. After washing the cells, strefptavidin linked to Texas red [Amersham] was then added at a 1:500 dilution for 30 minutes at room temperature. To stain for BrdU incorporation, 1.5N HCl was added to the cells for ten minutes at room temperature to denature the DNA. After washing the cells, sheep anti-BrdU antibodies [Fitzgerald] at a 1:12 dilution were then added for one hour at room temperature. After washing the cells, rabbit FITC-conjugated anti-sheep antibodies [Vector] at 1:100 dilution was then incubated for 30 minutes at room temperature.
NIH-3T3 cells were placed on cover slides and transfected with the expression vectors (pFLEX-DMP1 or the corresponding vector containing the deletion or point mutants of mouse DMP1 plus or minus cyclin D or E) for fourteen hours. The cells were then washed twice and DMEM plus 10% FCS was added and the cells incubated for eight hours. Half of the cells were starved by washing twice with 0.1% FCS, and then incubated for twenty-four hours in 0.1% FCS in DMEM. The remaining cells were not starved but were incubated for twenty-four hours in DMEM plus 10% FCS without washing. BrdU was added to both groups of cells and the cells were incubated for twenty-two hours in DMEM plus 10% FCS.
The cells were then restimulated to enter the cell cycle synchronously with DMEM plus 10% FCS. At the same time, 5′-Bromo-2′ Deoxyuridine (BrdU) was added to the medium. The cells were fixed 22 hours later in methanol acetone (1:1) and stained for BrdU incorporation and DMP1 expression as described in the Materials and Methods.

32P-BS2 Probe = assay: EMSA with 32P-BS2 probe on transfection lysates of NIH-3T3 fibroblasts; format: binding; conditions: EMSA, 32P-BS2 probe, lysates of transfected NIH-3T3 fibroblasts
Description: (§1) Double-stranded oligonucleotides containing potential DMP1 binding sites (BS1 and BS2) and mutated versions (M1-M4) (FIG. 5B) are end-labeled with ^32P using the Klenow fragment of DNA polymerase and α-^32P-dATP (6000 Ci/mmol; Dupont NEN) (8). Nuclear extracts from mouse NIH-3T3 or CTLL cells are prepared with buffer containing 0.4 M NaCl (2). Mammalian cell extracts (15 μg protein) or Sf9 lysates (corresponding to 5×10^2 infected cells) containing ˜4 ng recombinant DMP1 are mixed with 3 ng of ^32P-labeled probe (1×10^5 cpm) in 15 ul Binding buffer containing 2.5 μg of poly(dI-dC) and 2.5 μg BSA and incubated at 4° C. for 30 minutes. For competition experiments, the indicated amounts of unlabeled oligonucleotides are added to the reactions before addition of the labeled probe. In some experiments, a bacterially produced GST-Ets2 fusion protein containing the complete Ets2 DNA-binding domain (10) is used in place of Sf9 extracts containing recombinant DMP1. Protein-DNA complexes are separated on nondenaturing 4% polyacrylamide gels as described (8). Where indicated, antiserum to DMP1 together with 2.5 μg salmon testis DNA (Sigma; used to reduce nonspecific DNA binding activity caused by serum addition) is preincubated with extracts for 30 minutes at 4° C. prior to initiation of binding reactions. Immune complexes are either removed by adsorption to protein A-Sepharose beads (immunodepletion experiments) or are allowed to remain (“supershift” experiments).
A series of deletion mutants and a point mutant of DMP1, K319E, (in which the lysine at position 319 of SEQ ID NO:1 is replaced by a glutamic acid) were prepared and used to determine the DNA-binding domain of DMP1 by electrophoretic mobility shift assay (EMSA) using a ^32P labeled BS2 probe. The DNA-binding domain of DMP1 was mapped to a central region containing the three MYB repeats plus adjacent flanking sequences: a BstEII to NcoI fragment encoding amino acids 87-458 of SEQ ID NO:1 (Table 1). This region alone was necessary and sufficient for DNA binding.

recombinant DMP1 = target: T1, recombinant DMP1 (Mus musculus, UniProt Q8CE22); assay: EMSA competition with Sf9 lysates producing recombinant DMP1; format: binding; conditions: excess unlabeled oligonucleotide
T1 construct: made in house; host or cells: Sf9 insect cells, pAcYM1 baculovirus vector; used as crude lysate (~4 ng DMP1 per reaction)
T1 sequence (Q8CE22 1-761): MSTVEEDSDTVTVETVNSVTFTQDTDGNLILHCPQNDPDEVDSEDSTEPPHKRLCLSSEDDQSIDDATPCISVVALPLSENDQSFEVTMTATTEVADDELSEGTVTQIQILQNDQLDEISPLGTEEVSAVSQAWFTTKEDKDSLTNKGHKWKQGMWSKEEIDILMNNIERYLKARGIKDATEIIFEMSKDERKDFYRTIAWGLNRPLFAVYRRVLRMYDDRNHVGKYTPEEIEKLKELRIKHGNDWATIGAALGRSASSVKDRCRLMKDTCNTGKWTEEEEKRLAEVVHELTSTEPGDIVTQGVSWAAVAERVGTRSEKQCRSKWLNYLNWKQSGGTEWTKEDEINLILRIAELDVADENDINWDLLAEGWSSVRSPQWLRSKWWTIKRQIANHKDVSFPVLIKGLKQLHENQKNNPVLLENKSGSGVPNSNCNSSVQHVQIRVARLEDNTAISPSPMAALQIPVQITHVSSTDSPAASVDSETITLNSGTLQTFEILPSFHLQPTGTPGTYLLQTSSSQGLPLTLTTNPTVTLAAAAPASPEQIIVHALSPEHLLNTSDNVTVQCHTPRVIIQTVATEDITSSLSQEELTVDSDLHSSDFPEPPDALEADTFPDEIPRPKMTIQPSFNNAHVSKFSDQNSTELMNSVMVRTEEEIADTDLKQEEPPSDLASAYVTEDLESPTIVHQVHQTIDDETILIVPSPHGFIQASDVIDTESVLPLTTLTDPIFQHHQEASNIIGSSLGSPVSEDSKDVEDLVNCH
Description: as §1
(§2) Using electrophoretic mobility shift assays (EMSA) performed after mixing a titrated excess (3 ng) of ^32P-end labeled BS1 probe with Sf9 lysates producing DMP1 (˜4 ng recombinant protein per reaction), a BS1-containing protein complex is detected that was competed with an excess of unlabeled BS1 oligonucleotide but not with mutant oligonucleotides M1 and M2 (FIG. 6A). […] More subtle mutations within this region may be tolerated, because high concentrations of M4 competed for BS1 binding to both Ets2 and DMP1 in subsequent studies (FIG. 5B and see below). DMP1 also binds a BS2 probe, and the binding is competed by excess BS2 or BS1 (FIG. 6B). In agreement with the site selection frequencies (FIG. 5A), binding of ^32P-BS1 under equivalent conditions was competed more efficiently by excess unlabeled BS1 than by BS2 (FIG. 6B). […] In agreement, Ets2 binding to BS1 could be competed with excess unlabeled BS1 and M3, but not by BS2 (FIG. 6C). Therefore, although both DMP1 and Ets2 can each bind to BS1 sequences, their exclusive interactions with BS2 and M3, respectively, help to distinguish DMP1 and Ets binding activities (summarized in FIG. 5B).

[1] = tested on: DMP1-responsive promoter (pGL2BS2); assay: Transactivation of luciferase reporter plasmid under control of a DMP1-responsive promoter in NIH-3T3 fibroblasts; format: cell-based, mouse; conditions: expression vector 3 μg/10 ml, pGL2BS2 8 μg/10 ml; vector without insert set to 1.0
From the text: Coexpression of a D-type cyclin with DMP1 overrides the ability of DMP1 to transactivate a luciferase gene under the control of an artificial DMP1-responsive promoter (Table 4), as well as the ability of DMP1 to inhibit cell growth.

GST-Ets2 fusion protein = target: T2, GST-Ets2 fusion protein (Homo sapiens, UniProt P15036); assay: EMSA competition with bacterial GST-Ets2 fusion protein; format: binding; conditions: excess unlabeled oligonucleotide
T2 construct: made in house; host or cells: bacteria
T2 sequence (P15036 363-443 limits assumed): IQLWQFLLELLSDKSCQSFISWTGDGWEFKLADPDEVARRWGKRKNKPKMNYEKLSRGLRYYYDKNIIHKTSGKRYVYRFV
Description: as §1, §2

cyclin D1 = target: T3, cyclin D1 (Mus musculus, UniProt P25322); assay: Flag immunoprecipitation from SF9 lysates and Western blot for cyclin D1; format: binding; conditions: cotransfected with cyclin D1 in SF9 cells
T3 construct: expressed in transfected cells; host or cells: SF9 insect cells
T3 sequence (P25322 whole entry): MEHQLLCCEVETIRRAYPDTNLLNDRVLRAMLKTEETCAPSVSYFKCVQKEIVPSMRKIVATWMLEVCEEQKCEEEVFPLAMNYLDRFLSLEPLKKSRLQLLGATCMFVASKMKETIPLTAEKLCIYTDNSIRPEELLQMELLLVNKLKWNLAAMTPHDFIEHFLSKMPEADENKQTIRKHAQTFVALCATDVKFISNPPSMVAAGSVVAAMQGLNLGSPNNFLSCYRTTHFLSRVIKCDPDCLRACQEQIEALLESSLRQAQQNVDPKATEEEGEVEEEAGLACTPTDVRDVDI
From the text: The series of DMP1 deletion mutants and the K319E point mutant were then used to determine the cyclin D binding domain of DMP1. Expression vectors encoding murine wild-type DMP1, the corresponding deletion mutations, or K319E (i.e., wildtype DMP1 and M1-M11, defined in FIG. 10, Table 1) were cotransfected with an expression vector encoding cyclin D1 into SF9 cells. Wildtype DMP1 and M1-M11 were expressed containing Flag-tags. SF9 lysates were immunoprecipitated with an antibody raised against the Flag-tag. The immunoprecipitates were resolved individually by gel electrophoresis, and then Western blotted with an antibody raised against cyclin D1. […] Therefore, deletion of the N-terminal domain of DMP1 (i.e., amino acids 1-223) abrogates its ability to interact with D-type cyclins, and thus, the region of DMP1 from residues 1-223 contains a specific cyclin D interaction motif required for D-type cyclin-DMP1 association.

Row | competition for 32P-BS1 probe binding to DMP1 (recombinant DMP1) | Luciferase Activity [1] | band corresponding to cyclin D1 in Flag immunoprecipitate (cyclin D1) | Substance | % Cells BrdU Positive (NIH-3T3 fibroblasts) [%] | 32P-labeled Band (32P-BS2 Probe) | competition for BS1 binding to Ets2 (GST-Ets2 fusion protein) | competition for BS2 probe binding to DMP1 (recombinant DMP1) | % Cells BrdU Positive in 10% FCS (NIH-3T3 fibroblasts) [%] | % Cells BrdU Positive in 0.1% FCS (NIH-3T3 fibroblasts) [%]
1 | not | 6.7 | – | M1: DMP1 deletion mutant (EcoNI), amino acids 1-661 of SEQ ID NO:1 | 12 | Yes | – | – | – | –
2 | – | 1.0 | – | M6: DMP1 deletion mutant, amino acids 1-86; 170-761 of SEQ ID NO:1 | 48 | No | – | – | 44 | 47
3 | – | 1.0 | cyclin D1 binding domain is missing | M9: DMP1 5′ deletion mutant, amino acids 234-761 of SEQ ID NO:1 | 50 | No | – | – | – | –
4 | – | 0.9 | – | M7: DMP1 deletion mutant, amino acids 1-169; 238-761 of SEQ ID NO:1 | 36 | No | – | – | – | –
5 | not | 3.6 | – | M2: DMP1 deletion mutant (StuI), amino acids 1-520 of SEQ ID NO:1 | 20 | Yes | – | – | – | –
6 | – | 1.1 | – | M10: DMP1 deletion mutant (BstEII and NcoI), amino acids 87-458 of SEQ ID NO:1 | 56 | Yes | – | – | – | –
7 | competed | 1.0 | – | M4: DMP1 deletion mutant (BstBI), amino acids 1-380 of SEQ ID NO:1 | 52 | No | competed | – | – | –
8 | – | 1.1 | – | M8: DMP1 deletion mutant, amino acids 1-237; 381-761 of SEQ ID NO:1 | 54 | No | – | – | 54 | 54
9 | – | 6.2 | particularly faint | M5: DMP1 deletion mutant (XbaI and BstEII), amino acids 87-761 of SEQ ID NO:1 | 32 | Yes | – | – | – | –

Row | Substance | competition for 32P-BS1 probe binding to DMP1 (recombinant DMP1) | Luciferase Activity [1] | band corresponding to cyclin D1 in Flag immunoprecipitate (cyclin D1) | % Cells BrdU Positive (NIH-3T3 fibroblasts) [%] | 32P-labeled Band (32P-BS2 Probe) | competition for BS1 binding to Ets2 (GST-Ets2 fusion protein) | competition for BS2 probe binding to DMP1 (recombinant DMP1) | % Cells BrdU Positive in 10% FCS (NIH-3T3 fibroblasts) [%] | % Cells BrdU Positive in 0.1% FCS (NIH-3T3 fibroblasts) [%]
10 | oligonucleotide BS1: probe/competitor BS1, SEQ ID NO:10, DMP1 binding site with GGA core (DNA AATTGACCCGGATGTAGGTACGC; chemistry not given here) | competed | – | – | – | – | competed | competed | – | –

Reference: patent publication US6673902B2, “Cyclin D binding factor, and uses thereof” (St. Jude Children's Research Hospital, priority 1996, dated 2004)
